Experimental data: patent publication US20080170998A1 (priority 2005, published 2008)

Experiments:
[1] = test system: arginine-specific protease (Arg-gingipain; RGP); experiment: Protease inhibition, fluorogenic substrate Bz-Arg-methylcoumarinamide, culture supernatant; type: biochemical, Porphyromonas gingivalis; conditions: substrate 100 μM, 15 minutes room temperature
Description: Enzyme activity inhibitions of an arginine-specific protease (Arg-gingipain; hereinafter, referred to as “RGP”) and lysin-specific protease (Lys-gingipain; hereinafter, referred to as “KGP”) as dominant virulence factor for Porphyromonas gingivalis were examined.
The reaction was stopped by adding 2 mM TLCK, and released methyl-coumarin-amide was measured by means of spectrophotofluorometer (excitation wavelength: 380 nm, fluorescence wavelength: 460 nm).
Furthermore, an inhibition rate was defined according to the Equation (1):
Inhibition rate(%)=(Blank fluorescence intensity−Sample fluorescence intensity)÷Blank fluorescence intensity×100 (1)
Blank fluorescence intensity indicates fluorescence intensity upon reaction without adding pRH. Sample fluorescence intensity indicates fluorescence intensity upon reaction with adding pRH.

[2] = test system: Prevotella nigrescens ATCC 25261 strain; conditions: O.D.660 nm after 24 hours and 48 hours, FIG. 4
[3] = test system: Porphyromonas gingivalis ATCC 33277 strain; type: cell-based; conditions: 0.1 mg/mL, 1 mg/mL, 10 mg/mL
[4] = test system: Porphyromonas gingivalis ATCC 33277 strain, W50 strain; experiment: Growth of periodontopathic bacteria in pRH-containing medium (turbidity O.D.660 nm); type: cell-based; conditions: 500 μg/mL; ATCC 33277 and W50 strains; FIGS. 1, 2
Description: (§1) Each of the above cryopreserved strains was anaerobically cultivated at 35° C. for 48 hours by using TSB medium to which yeast extract (1 g/L), hemin ([…]), and menadione (1 mg/L) were added to provide a precultured bacterial culture.

[5] = test system: Actinobacillus actinomycetemcomitans ATCC 29523 stain, Y4 strain; experiment: as above; type: cell-based; conditions: 500 μg/mL; ATCC 29523 and Y4 strains; FIGS. 5, 6
Description: as §1

[6] = test system: Treponema denticola ATCC 33520 strain; experiment: as above; type: cell-based; conditions: 500 μg/mL, FIG. 9
Description: as §1

[7] = test system: Prevotella intermedia ATCC 49046 strain; experiment: as above; type: cell-based; conditions: 500 μg/mL, FIG. 3
Description: as §1

[8] = test system: Fusobacterium nucleatum ATCC 23726 strain, ATCC 25586 strain; experiment: as above; type: cell-based; conditions: 500 μg/mL; ATCC 23726 and ATCC 25586 strains; FIGS. 7, 8
Description: as §1

[9] = test system: Porphyromonas gingivalis ATCC 33277 strain and Streptococcus oralis ATCC 9811 strain; conditions: pRH solution 2.5 mg/mL; PBS pH 6.0, 37° C.; FIG. 13

| Substance | inhibition rate for RGP ([1]; pRH at 100 μg/mL) | inhibition rate for RGP ([1]; pRH at 1000 μg/mL) | concentration at which a growth inhibitory effect was observed [2] | inhibition of the absorption (adhesion) of Porphyromonas gingivalis for sHA [3] | growth inhibitory effect [4] | growth inhibitory effect [5] | growth inhibitory effect [6] | growth inhibitory effect [7] | growth inhibitory effect [8] | aggregation inhibitory activity (inhibition rate of coaggregation) [9] |
| --- | --- | --- | --- | --- | --- | --- | --- | --- | --- | --- |
| polyarginyl histidine [pRH] | 0.2% | 7.7% | ≥ 100 µg/mL | obviously inhibited | not observed | not observed | not observed | not observed | not observed | 33% |
| polylysine [reference compound] |  |  |  | did not inhibit |  |  |  |  |  |  |
